According to the NIST ThermoML archive (doi:10.1021/je301279x):
± gives the expanded uncertainty stated by the source.

How the values were obtained:
[1] = Drop volume
[2] = xn = mol fraction of the nth substance listed; settings: for surface tension liquid-gas: Drop volume; for mass density: 800 kPa, Liquid, Vibrating tube method

NCCO [2-aminoethan-1-ol]
[1]
Settings	surface tension liquid-gas [mN/m]
293.15 K	48.48 ± 0.84
303.15 K	47.64 ± 0.83
313.15 K	46.88 ± 0.83

NCCO [2-aminoethan-1-ol] + O
[2]
Settings	mass density, 303.15 K [kg/m3]	mass density, 313.15 K [kg/m3]	mass density, 323.15 K [kg/m3]	mass density, 333.15 K [kg/m3]	surface tension liquid-gas, 303.15 K [mN/m]	surface tension liquid-gas, 313.15 K [mN/m]	surface tension liquid-gas, 323.15 K [mN/m]	surface tension liquid-gas, 333.15 K [mN/m]
x1 = 0.0687	1003.6 ± 6.2	999.4 ± 6.2	994.6 ± 6.1	989.1 ± 6.1	66.7 ± 2.9	65.2 ± 2.9	63.6 ± 2.8	61.6 ± 2.8
x1 = 0.1122	1008.2 ± 6	1003.3 ± 5.9	998.1 ± 5.9	992.3 ± 5.9	63.7 ± 2.8	62.4 ± 2.8	61 ± 2.8	59.5 ± 2.8
x1 = 0.1643	1013.3 ± 5.7	1007.8 ± 5.7	1002.1 ± 5.7	995.7 ± 5.6	61.5 ± 2.7	59.8 ± 2.7	58.4 ± 2.7	57 ± 2.7
x1 = 0.2277	1017.8 ± 5.4	1011.8 ± 5.4	1005.4 ± 5.4	998.7 ± 5.4	59.6 ± 2.7	58.1 ± 2.7	56.5 ± 2.7	55.1 ± 2.6
x1 = 0.3067	1021.3 ± 5.1	1014.6 ± 5.1	1007.8 ± 5.1	1000.6 ± 5.1	57.4 ± 2.6	56.1 ± 2.6	55 ± 2.6	53.6 ± 2.6
x1 = 0.4076	1022.6 ± 4.9	1015.5 ± 4.8	1008.2 ± 4.8	1000.6 ± 4.8	54.5 ± 2.6	53.6 ± 2.6	52.5 ± 2.5	51.2 ± 2.5

O [water]
[1]
Settings	surface tension liquid-gas [mN/m]
293.15 K	72.56 ± 2
303.15 K	70.9 ± 2
313.15 K	69.81 ± 1.9
323.15 K	67.72 ± 1.9
